Measured values: US12582720B2, “Compound for preventing or treating lipid metabolism-related diseases” (Fudan University, priority 2020, dated 2026)
Read-outs that look alike come from different tables or passages of the source.

How the values were obtained:
LC3B = LC3B (Homo sapiens, UniProt Q9GZQ8); assay: MST detection of affinity activity with LC3B; format: binding; set-up: His8 (with TEV site) (N); made in house; host or cells: Escherichia coli BL21(DE3)pLysS
Procedure: The recombinant GST-LC3B proteins were prepared and purified, dialyzed into 1×PBS, and then labelled with the red fluorophore with the protein labeling kit RED-NHS (Nanotemper, cat. no. L001).
The MST experiments were performed using the Monolith NT.115 instrument (NanoTemper Technologies). The reaction buffer contains 20 mM HEPES, pH 7.4, 150 mM NaCl, and the protein concentration was 500 nM. The MST data were collected under 40% infrared laser power and 20% light-emitting diode power. The data were analyzed by Nanotemper software.

[1] = tested on: lipid droplets in SH-SY5Y cells; assay: Reduction of OA-induced lipid droplets in SH-SY5Y cells; format: cell-based, human; details: unconjugated compound 5 μM
Source text: The reduction of lipid droplets in SH-SY5Y cells by Compound 1A and Compound 2A was detected by a method that was similar to Example 2, and the result was shown in FIG. 18.
The effects of unconjugated LC3 binding Compound A1, A5 and unconjugated lipid droplet probe ORBB […] respectively on lipid droplets in SH-SY5Y cells (FIG. 20A) and MEF cells (FIG. 20B) were detected by a method similar to Example 2.

[2] = tested on: lipid droplets in 3T3-L1 fat precursor cell differentiated fat cells; assay: Lipid droplets in 3T3-L1 fat precursor cell differentiated fat cells; format: cell-based, mouse; details: 3T3-L1 differentiated fat cells, 5 μM, 24 h
db/db mice = assay: Effect of the compound on db/db mouse; format: in vivo
Source text: Experimental animals: nineteen-week-old db/db male mice (C57BL/6J-Lepr^db/Lepr^db) were obtained from Shanghai Model Organisms Co., Ltd., and acclimatized for at least 1 week before experiments. The mice had ad libitum access to standard chow and water.
Normal control: The C57BL/6 male mice fed on standard irradiated chow diet (Shuyishuer Inc. cat. no. D12450J) from Changzhou Shuyishuer Biotechnology Co., Ltd. (Shuyishuer Inc.) were used as the normal control.
Mice were randomly divided into 7 groups, wherein 8 mice in each group, and the mice in each group were subjected to intraperitoneal injection to administer: (1) only vehicle (no DMSO) group: 0% DMSO+39% PEG300 (Selleck, cat. no. S6704)+5% Tween-80 (Selleck, cat. no. S6702)+56% distilled water, (2) DMSO group: 1% DMSO+39% PEG300+5% Tween-80+55% H2O (DMSO vehicle), (3) C3 group: Compound 3A was in DMSO vehicle, (4) C4 group: Compound 4A in DMSO vehicle, (5) SIII group: Sudan III DMSO vehicle, (6) GW5074 group: Compound A1 in DMSO vehicle, (7) DP group: Compound A5 in DMSO vehicle. For groups (3)-(7), the compound (30 mg/kg, administration volume 150 μL) was administered through intraperitoneally injection for consecutive 2 weeks, and once a day. The food and water intake were measured with an analytical electronic balance.
Bodyweight was weighed every day.
If time permitted, tail vein blood (30-50 μL) was collected every 1-3 days.
24 hours after the time point of the last injection, end point maxillary surface blood sampling was performed on each mouse. All mice were Euthanized by cervical dislocation, and then tissue sample (e.g., liver samples) were obtained and stored in Eppendorf tubes at −80° C. for assay.
12 days after initiation of administration, each mouse was scanned by a minispec nuclear magnetic resonance (NMR) instrument (Bruker LF50 II “Minispec” body composition analyzer, Bruker Optics) that was designed for experimental animals, and based on the measurement of solid and liquid parts of the samples, the body fat and lean body weight were determined by this device.
Serum: Tail vein blood samples (30-50 μL) were left to coagulate in […] blood collection tubes (Jiangsu Kangjian Medical Products Co., Ltd., model KJ002) at room temperature without interference, and then centrifuged at 2,000×g for 10 minutes at 4° C. to remove the clot. Supernatant was collected to obtain the serum.
Liver: Liver samples were obtained as described in (2). 100 mg of liver tissue was homogenized in 0.9 mL of absolute alcohol under ice-cold conditions, and then centrifuged (2,500 r.p.m/min, 10 min). Supernatant was collected, and then stored at −80° C.
The kits were used according to the instruction from manufacturer (TAG: TG kit, cat. no. A110-1-1; TC: T-CHO kit, cat. no. A111-1. FFA: NEFA kit, cat. No. A042-2-1; they were all from Nanjing Jiancheng Bioengineering Institute). TAG, TC and FFA levels in serum and liver samples were determined.
According to the lipidomic method as described above, the contents of liver total lipid, glycerolipid, sterol lipid, neutral sphingolipid and polar lipid were analyzed. The log 2-fold change (log2 FC) and statistical significance (p-value) relative to the DMSO group were calculated.

[3] = tested on: lipid droplets in human normal liver cell line QSG7701; assay: Endogenous lipid droplets in human normal liver cell line QSG7701; format: cell-based; details: QSG7701, no induction, 5 μM, 24 h
Procedure: 10% FBS+90% RPMI 1640 culture medium was used for cultivation, cell incubator culture condition of 37° C. and 5% CO2 was used. Cells were plated as 50 thousands/well (12 well plate was plated with aseptic treated slides). When cells grew to a confluence of 80-90%, the compound (Compound 1A or Compound 2A, at a concentration of 5 μM) was added for treatment, and LC3 binding Compound A1, A5, lipid droplet probe Sudan IV as well as DMSO acted as a control. […]. In the compounds of present disclosure, LC3 binding moiety was covalently linked with lipid droplet binding moiety, and thus could achieve the effect of reducing liver cell endogenous lipid droplet.

[4] = tested on: lipid droplets in wild type MEF cells; assay: Reduction of OA-induced lipid droplets in wild type MEF cells (BODIPY 493/503 staining); format: cell-based, mouse; details: MEF, unconjugated compound 5 μM
Procedure: (5) OA-BSA stock solution was prepared into OA-BSA working solution (50× final concentration, 200 μM), and 40 μl of OA-BSA working solution was added to each well to induce lipid droplets. For the non-OA induction group, 40 μl of 10% BSA solution was added to the control well, and the amount of BSA was the same as that of the experimental group.
Compounds were formulated into DMSO stock solutions. Stock compounds were diluted with DMSO into the indicated concentrations of working solutions prior to use in the treatment of cells. After induction of the lipid droplets with OA for the indicated time, the test compounds were added to the cells respectively. Control wells were replaced with the equal volume of DMSO. Unless otherwise stated, the compounds were diluted into 10× solutions using the culture medium and added to the culture medium for 24 hours of incubation. Cells were treated with compounds in a 37° C. incubator with 5% CO2.
(3) The original medium in the multi-well plates was removed, washed and the cells was fixed, 1 ml of the BODIPY solution prepared in (1) was added to each well, and stained for 15 minutes. The staining solution was aspirated and washed with 1×PBS.
(5) The coverslips laid in the multi-well plates were removed, and imaged with the Zeiss 880 confocal microscope after mounted, and analyzed the size and number of lipid droplets with ImageJ.
Wild type MEF cells were cultured in a DMEM culture medium containing 10% FBS. Cells were plated according to the method as described above (12 well plate was plated with aseptic treated slides). When cells grew to a confluence of 60-70%, lipid droplets were induced with OA for 30 h according to the method as described above.
At the time point of 6th hour after initiation of induction, the cells were treated (treated for 24 hours) with Compound 1A or Compound 2A (compound concentrations were 50 μM, 15.8 μM, 5 μM, 1.58 μM, 0.5 μM, 0.158 μM) according to the method as described above.

[5] = tested on: autophagosome-lipid droplet colocalization in MEF cells; assay: Colocalization of autophagosome and lipid droplets in mCherry-LC3B transfected MEF cells; format: cell-based, mouse; details: 5 μM, 3 h, compared to DMSO control
Procedure: (1) In MEF cells, mCherry-LC3B was expressed by cDNA plasmid transfection.
(2) OA was added to the culture medium 30 hours after transfection to induce lipid droplets.
(3) Compounds were added to treat cells 6 hours after induction.
(4) 3 hours after compounds addition, cells were fixed and BODIPY stained.
(5) The coverslips laid in the multi-well plates were removed, and imaged with the Zeiss 880 confocal microscope after mounted to observe the aggregation of LC3 puncta around the lipid droplets.
In MEF cells, mCherry-LC3B was expressed by cDNA plasmid transfection. At 30th hour of overexpression, OA was added into cells for lipid droplet induction. 6 hours later, the compound was added for 3 hours' treatment, and then cells were subjected to immunostaining. […] Lipid droplets (green) were stained with BODIPY stain, and nucleus were indicated with DAPI stain. […] In FIG. 24, the colocalized autophagosome-lipid droplet was marked with circles.

[6] = MST, read-out: Kd, equilibrium dissociation constant between the LC3 binding compound and LC3B

SMILES: O=C(O)c1cc2ccc(O)cc2oc1=O [Compound A4]
- Kd (LC3B; [6]): 3 µM

SMILES: O=c1cc(-c2ccccc2)c2c(O)cc(O)cc2o1 [Compound A5, 5,7-dihydroxy-4-phenyl-2H-coumarin, reference compound]
- lipid droplets (number and size) [1]: did not significantly decrease or become smaller
- amount/size of lipid droplets [2]: no significant effect
- mice died in the experiment (db/db mice; 30 mg/kg ip, 8 mice per group): one mouse
- endogenous lipid droplets (amount) [3]: no significant effect
- lipid droplets (number and size) [4]: did not significantly decrease or become smaller

SMILES: COc1ccc(-c2cc(=O)oc3c(C)c(O)c(CN(C)C)cc23)cc1 [Compound A7]
- Kd (LC3B; [6]): 0.672 µM

SMILES: Cc1ccc(C(=O)N(CCCN)[C@@H](c2nc3cc(Cl)ccc3c(=O)n2Cc2ccccc2)C(C)C)cc1 [Compound A8, ispinesib]
- Kd (LC3B): 0.462 ± 0.11 µM

SMILES: Nc1ncnc2c1c(-c1cccc(OCc3ccccc3)c1)cn2C1CC(CN2CCCC2)C1 (centres unmarked) [Compound A10]
- Kd (LC3B; [6]): 3.98 ± 0.537 µM

SMILES: COCC(=O)NC/C=C/c1ccc2ncnc(Nc3ccc(Oc4ccc(C)cc4)c(C)c3)c2c1 [Compound A11]
- Kd (LC3B; [6]): 2.78 ± 0.577 µM

SMILES: CC(C)(C)c1cc(NC(=O)Nc2ccc(-c3cn4c(n3)sc3cc(OCCN5CCOCC5)ccc34)cc2)no1 [Compound A12]
- Kd (LC3B; [6]): 21.3 ± 1.69 µM

SMILES: Cc1csc(-c2nnc(Nc3ccc(Oc4ncccc4-c4ccnc(N)n4)cc3)c3ccccc23)c1 [Compound A13]
- Kd (LC3B; [6]): 5.19 ± 0.282 µM

SMILES: OCCCCCCCCCCBr [Linker, 10-bromo-1-decanol, reference compound]
- amount/size of lipid droplets [2]: no significant effect

SMILES: Oc1ccc2ccccc2c1/N=N/c1ccc(/N=N/c2ccccc2)cc1 [Sudan III, reference compound]
- amount/size of lipid droplets [2]: no significant effect
- TAG in liver (db/db mice; lipidomics): not reduced
- other major neutral lipids, cholesteryl ester (ChE) and diglyceride (DG) in liver (db/db mice; lipidomics): not reduced
- interaction with LC3B (LC3B; MST): No interaction

SMILES: Cc1ccccc1/N=N/c1ccc(/N=N/c2c(O)ccc3ccccc23)c(C)c1 [Sudan IV, reference compound]
- lipid droplets (number and size) [1]: did not significantly decrease or become smaller
- ratio of colocalization of red and green aggregation point (autophagosome-lipid droplet) [5]: No such effect
- amount/size of lipid droplets [2]: no significant effect
- endogenous lipid droplets (amount) [3]: no significant effect
- interaction with LC3B (LC3B; MST): No interaction
- lipid droplets (number and size) [4]: did not significantly decrease or become smaller
